Measurements taken from patent US7977304B2, “FK 228 derivates as HDAC inhibitors” (University of Southampton Highfield, priority 2005, dated 2011).

Assays:
[1] = system: HDAC responsive SV40 promoter; test: Activity Assay 2: SV40 promoter-luciferase reporter in MCF7 derived 2.1.1 cells; type: cell-based; conditions: approx 16 hours
Experimental: Method. We generated a stable clone derived from MCF7 cells containing an integrated reporter construct with the SV40 immediate early promoter cloned upstream of the luciferase gene. MCF7 cells were transfected with pGL2-Basic (SV40/luciferase reporter) (Promega, UK) and pcDNA3 (expresses neomycin resistance gene) using Transfast transfection reagent. After 24 hours, cells were collected by trypsinisation and plated at low density. The following day, G418 was added to the growth medium. After ˜21 days, individual drug-resistant colonies were isolated and cultured. […] To test the effects of compound 001, 2.1.1 cells were incubated with various concentrations of compound 001 or an equivalent amount of DMSO as a control. The following day, cells were collected and luciferase activity detected using the Promega luciferase assay system and a TopCount (Perkin-Elmer).
MCF7 derived cells containing a stably integrated SV40 promoter-luciferase reporter plasmid were treated with the indicated concentrations of compound 001, or DMSO as a solvent control. Luciferase activity was determined after approx 16 hours. The data shown are derived from a single experiment performed in duplicate and are representative of multiple experiments.

[2] = system: histone acetylation in MCF7 breast cancer cells; test: Activity Assay 4: histone acetylation by immunoblotting, MCF7; type: cell-based; conditions: MCF7, 24 hours
Experimental: Method; Cardiac myocytes were prepared as described in Chembiochem. 2005 January; 6(1):162-70 and incubated with the indicated concentrations of compound 001 for 24 hours. MCF7 cells were incubated with the indicated concentrations of compound 001 for 24 hours. Expression of total histone H4 acetylation, or specific acetylation of Histone H4-K8 or Histone H3-K9 was analysed by Western blotting, as previously described (Brimmell et al. Br J Cancer. 1999 November; 81(6):1042-51) using antibodies from Upstate Biotech.
(A) MCF7 cells were incubated with compound 001 for 24 hours. Histone H4 acetylation was measured by immunoblotting. (B) Cardiac myocytes were incubated with indicated compound 001 for 24 hours. Histone H4 acetylation was measured by immunoblotting. (C) MCF7 cells were incubated with compound 001 for 24 hours. Histone H3-K9 and Histone H4-K8 acetylation was measured by immunoblotting

MCF7 breast cancer cells = test: Activity Assay 6: CyQuant cell growth inhibition, MCF7; type: cell-based; conditions: Homo sapiens, 144 h, MCF7, 6 days
Experimental: (§1) We analysed the ability of compounds to inhibit the in vitro growth of human cancer cells. Cell proliferation assays were performed using the CyQuant™ assay system (Molecular Probes, Inc. USA) according to the manufacturer's instructions. MCF7 breast, A2780 ovarian and PC3 and LNCAP prostate cancer cells were plated in 96 well plates, at a density of 1000 cells for MCF7 cells or 5000 cells for M780/PC3/LNCAP cells, in 100 μl of cell culture medium per well. Compounds were added a minimum of 5 hours later, in serial dilutions in cell culture medium, in 100 μl volumes at 2× final concentration. Cell culture medium was removed after 4 (A2780, PC3 or LNCAP cells) or 6 days (MCF7 cells) by inversion of the plate onto blotting paper and cells were gently washed once with 200 μl PBS. Plates were frozen immediately for a minimum of one hour at −80° C. and then thawed. 200 μl of 1× CyQuant cell lysis buffer supplemented with dye, made according to the manufacturer's instruction, was added immediately to each well and incubated at room temperature for 3-5 minutes. Fluorescence was then measured for each well using a Cytofluor II Fluoresence Multiwell Plate Reader and CytoFluor II software with filters at 480 nm for excitation and 520 nm for emission maxima. Cell proliferation was determined for mean values of duplicate samples as percentages relative to untreated cell samples (=100%). Growth inhibition curves were used to derive IC50 values.

[3] = system: PC3 prostate cancer cells; test: Activity Assay 6: CyQuant cell growth inhibition, PC3; type: cell-based; conditions: Homo sapiens, 96 h, PC3, 4 days
Experimental: as §1

[4] = system: A2780 ovarian cancer cells; test: Activity Assay 6: CyQuant cell growth inhibition, A2780; type: cell-based; conditions: Homo sapiens, 96 h, A2780, 4 days
Experimental: as §1

[5] = system: TNFα production from peripheral blood mononuclear cells (PBMCs); test: Activity Assay 7: LPS-induced TNFα secretion from PBMCs (QUANTIKINE immunoassay); type: cell-based; conditions: Homo sapiens, PBMC; Concentration 200 nM
Experimental: We analysed the ability of compounds to inhibit the production of TNFα from peripheral blood mononuclear cells (PBMCs). TNF-α immunoassays were carried out using the QUANTIKINE® Human TNF-α assay kit (R&D systems, Abingdon UK) according to the manufacturer's instructions. […] Compounds were added 1 hour later in volumes of 100 μl at 6× final concentration. Five hours later lipopolysaccharide (LSP, Sigma, Poole, UK) was added in a volume of 10 μl at 60× final concentration. Plates were mixed and left overnight at 37° C. 5% C02. Plates were centrifuged and cell supernatant was transferred to a new plate. The QUANTIKINE® assay reagents and standards were prepared according to the manufacturer instructions. The QUANTIKINE® assay plate was prepared by adding 50 μl of assay diluent RD1F into each well. This was followed by 200 μl of standard or 100 μl of calibrator diluent plus 100 μl cell supernatant; this was incubated for 2 hours at room temperature (RT). The plate was washed using wash buffer 4 times. After the final wash the plate was tapped on clean paper towel to remove all residual buffer. 200 μl of TNF-α conjugate was added to each well and incubated for 1 hour at RT. The plate was then washed as before. The required amount of substrate solution was prepared by adding equal volumes of colour reagents A and B, protecting from light, 200 μl of this mix was added to each well and incubated for 20 mins at RT, protected from light. 50 μl of stop solution was added to each well in the same order as the substrate solution and the plate was read on a Biorad 680 96 well plate reader (Bio-Rad, Hemel Hempstead, UK) at 450 nm with λ correction at 570 nm. TNF-α levels were determined for mean values of duplicate samples using absorbance in nm, calibration zero values were subtracted from all results to correct for the addition of calibrator diluent in the assay.

[6] = system: inflammation in Balb/c mice; test: Activity Assay 8: oxazolone-induced ear inflammation in mice; type: in vivo; conditions: 24 hours; for Change in ear weight: Mean ± SD, 8 animals per group
Experimental: We analysed the ability of compound 9A (the compound of formula (2) on page 7) to inhibit inflammation in mice. Balb/c mice were sensitised by application of 5% (w/v) oxazolone to abdominal shaved skin. After 7 days mice were challenged by topical application of 3% (w/v) oxalazone to the left ear and acetone to the right ear. After 30 minutes test compounds dissolved in acetone were applied to the ears (dorsal and ventral surface).

IC50 (MCF7 breast cancer cells): 36.6 nM
IC50 [3]: 50 nM
IC50 [4]: 130 nM
Structure (SMILES): CC(C)[C@H]1NC(=O)[C@H]2CSSCC/C=C/[C@H](CC(=O)N[C@H](C)C(=O)N2)OC(=O)CNC1=O [Compound 9A, (E)-(1S,7R,10S,21R)-7-isopropyl-21-methyl-2-oxa-12,13-dithia-5,8,20,23-tetraaza-bicyclo[8.7.6]tricos-16-ene-3,6,9,19,22-pentaone]
activity of the HDAC responsive SV40 promoter (luciferase activity) [1]: effectively reverses HDAC-mediated repression of the SV40 immediate early promoter
Histone H3-K9 and Histone H4-K8 acetylation, MCF7 cells [2]: specific Histone H3-K9 and Histone H4-K8 acetylation
Histone H4 acetylation, MCF7 cells [2]: induces the accumulation of acetylated histone H4
inhibition at 0.2 µM [5]: 69%
% inhibition compared to vehicle ([6]; 0.1% topical in acetone): 33.3%
Change in ear weight ([6]; 0.1% topical in acetone): 42.4 ± 4.3 mg
% inhibition compared to vehicle ([6]; 1% topical in acetone): 63.0%
Change in ear weight ([6]; 1% topical in acetone): 23.5 ± 3.2 mg
